Test results: US10766917B2, “Nucleotides for the treatment of cancer” (IDENIX PHARMACEUTICALS LLC, priority 2015, dated 2020)

Key:
Type in all cases: cell-based
[1] = test system: HuH-1 cells; assay: In vitro inhibition of HuH-1, MTT assay; details: Homo sapiens, HuH-1, 72 h, read-out: HuH-1: relative IC50
Protocol: HuH-1 cells were purchased from JCRB and tested with the following method:
Cells are suspended at a specific density in a specific culture medium (see table in 2.Cell lines).
Then, 100 μl of cell suspension are plated per well in 96-well plates.
Compounds or negative controls (DMSO) are added to the cells (100 μl of a compound solution in its specific medium with a final concentration of 0.15% DMSO).
Each compound concentration is tested in duplicate (6 concentrations per compound).
Cells are incubated at 37° C. for 72 h without treating again.
SDS is added to control wells (final concentration of 1%) and kept for 15 min at 37° C. SDS 1% represents the positive control of proliferation inhibition.
Cell supernatant is removed and 100 μl of a MTT (3-[4.5-dimethylthiazol-2-yl]-2.5-diphenyltetrazolium bromide) solution in fresh medium are added per well (MTT final concentration of 0.5 mg/ml) and incubated for 4 h at 37° C.
MTT reaction is stopped and homogenized by adding 100 μl/well of SDS 10%, 0.01M HCl and incubated for 2 h at 37° C.
Absorbance is measured at 570 nm.

[2] = test system: NCI-H69; assay: In vitro inhibition, CellTiter-Glo (CTG) assay
Protocol: (§1) Cells were grown in RPMI-1640 supplemented with L-Glutamine and 10% FBS of the following cell lines:
(§2) CCRF-CEM; HL-60; KG-1; CFPAC-1; MiaPACA-2; BxPC-3; HepG2; MDA-MB-231; HCT-116; A498; and NCI-H69
(§3) 18, 96 well plates of each cell line were seeded with the optimized number of cells per well in a total volume of 50 μper well. The plates were left overnight. Plate wells were seeded with 100 pt media for media control. The following day, cells were exposed to test compounds as described below. At the same time as drug exposure, a CTG assay was conducted on the 18th plate for the 0 hr count.
(§4) The compounds were added to cells and medium already on the plate to give desired final concentrations. 50 μL media were added to cell control wells, and 50 μL of mix added to vehicle control wells. 10 μM Doxorubicin was added to appropriate wells as control. Cells exposed to test compound were incubated at 37° C. for 72 hr followed by a CTG assay.
(§5) At the end of the 72 hr exposure period, plates were removed for a CellTiter-Glo (CTG) assay from a 37° C., 5% CO2 incubator and placed on the bench at room temperature for 30 mins. 100 μL of CellTiter-Glo reagent was added and mixed for 2 mins, followed by a further 10 min incubation at room temperature. Luminescence was recorded using Synergy 4.0.

[3] = test system: MDA-MB-231; assay: In vitro inhibition, CellTiter-Glo (CTG) assay
Protocol: as §1, §2, §3, §4, §5

[4] = test system: HepG2; assay: In vitro inhibition, CellTiter-Glo (CTG) assay
Protocol: as §1, §2, §3, §4, §5

[5] = test system: A498; assay: In vitro inhibition, CellTiter-Glo (CTG) assay
Protocol: as §1, §2, §3, §4, §5

[6] = test system: HCT-116; assay: In vitro inhibition, CellTiter-Glo (CTG) assay
Protocol: as §1, §2, §3, §4, §5

[7] = test system: MiaPACA-2; assay: In vitro inhibition, CellTiter-Glo (CTG) assay
Protocol: as §1, §2, §3, §4, §5

[8] = test system: CFPAC-1; assay: In vitro inhibition, CellTiter-Glo (CTG) assay
Protocol: as §1, §2, §3, §4, §5

[9] = test system: BxPC-3; assay: In vitro inhibition, CellTiter-Glo (CTG) assay
Protocol: as §1, §2, §3, §4, §5

[10] = Homo sapiens, MDA-MB-231, 72 hr exposure
[11] = Homo sapiens, HepG2, 72 h, 72 hr exposure
[12] = Homo sapiens, MIA PaCa-2, 72 h, 72 hr exposure
[13] = Homo sapiens, CFPAC-1, 72 h, 72 hr exposure
[14] = Homo sapiens, BXPC-3, 72 h, 72 hr exposure
[15] = Homo sapiens, NCI-H69, 72 h, 72 hr exposure
[16] = Homo sapiens, A498, 72 h, 72 hr exposure
[17] = Homo sapiens, HCT-116, 72 h, 72 hr exposure

Row | SMILES | IC50 [1] [µM] | IC50 [3, 10] [µM] | IC50 ([2]; 72 hr exposure) [µM] | IC50 ([5]; 72 hr exposure) [µM] | IC50 ([6]; 72 hr exposure) [µM] | IC50 [4, 11] [µM] | IC50 [7, 12] [µM] | IC50 [8, 13] [µM] | IC50 [9, 14] [µM] | other results
1 | CCOC(=O)[C@H](C)CCO[P@]1(=O)OC[C@H]2O[C@@H](n3ccc(N)nc3=O)C(F)(F)[C@@H]2O1 (single isomer, unassigned) [Compound 123 Diastereoisomer 2] | < 0.3 | – | – | – | – | – | – | – | – | –
2 | CC(C)OC(=O)[C@H](C)CCO[P@]1(=O)OC[C@H]2O[C@@H](n3ccc(N)nc3=O)C(F)(F)[C@@H]2O1 (single isomer, unassigned) [Compound 120 Diastereoisomer 1] | < 0.3 | – | – | – | – | – | – | – | – | –
3 | CC(C)OC(=O)[C@@H](C)CCO[P@]1(=O)OC[C@H]2O[C@@H](n3ccc(N)nc3=O)C(F)(F)[C@@H]2O1 (single isomer, unassigned) [Compound 121 Diastereoisomer 1] | < 0.3 | – | – | – | – | – | – | – | – | –
4 | Nc1ccn([C@@H]2O[C@H](CO)[C@@H](O)C2(F)F)c(=O)n1 [Gemcitabine, reference compound] | < 0.3 | – | – | – | – | – | – | – | – | –
5 | Nc1ccn([C@@H]2O[C@H](COP(=O)(OCc3ccc([N+](=O)[O-])o3)OCc3ccc([N+](=O)[O-])o3)[C@@H](O)C2(F)F)c(=O)n1 [Compound 114, [(2R,3R,5R)-5-(4-amino-2-oxo-pyrimidin-1-yl)-4,4-difluoro-3-hydroxy-tetrahydrofuran-2-yl]methyl bis[(5-nitro-2-furyl)methyl] phosphate] | – | 10 to 100 | – | – | – | – | – | – | – | IC50 ([2]; Homo sapiens, NCI-H69, 72 hr exposure): 10 to 100 µM; IC50 ([4]; Homo sapiens, HepG2, 72 hr exposure): < 1 µM; IC50 ([5]; Homo sapiens, A498, 72 hr exposure): < 1 µM; IC50 ([6]; Homo sapiens, HCT-116, 72 hr exposure): 1 to 10 µM; IC50 ([7]; Homo sapiens, MIA PaCa-2, 72 hr exposure): < 1 µM; IC50 ([8]; Homo sapiens, CFPAC-1, 72 hr exposure): < 1 µM; IC50 ([9]; Homo sapiens, BXPC-3, 72 hr exposure): < 1 µM
6 | COC(=O)[C@H](CCCCNP1(=O)OC[C@H]2O[C@@H](n3ccc(N)nc3=O)C(F)(F)[C@@H]2O1)NC(=O)OC(C)(C)C (single isomer, unassigned) [106 (diastereomer 2)] | – | – | 10 to 100 | 10 to 100 | 1 to 10 | – | – | – | – | IC50 ([3]; 72 hr exposure): 10 to 100 µM; IC50 ([4]; 72 hr exposure): < 1 µM; IC50 ([7]; 72 hr exposure): 1 to 10 µM; IC50 ([8]; 72 hr exposure): 1 to 10 µM; IC50 ([9]; 72 hr exposure): 1 to 10 µM
7 | CC(C)OC(=O)[C@@H](C)CCO[P@@]1(=O)OC[C@H]2O[C@@H](n3ccc(N)nc3=O)C(F)(F)[C@@H]2O1 (single isomer, unassigned) [Compound 121 Diastereoisomer 2] | < 0.3 | – | – | – | – | – | – | – | – | –
8 | CC(C)C(=O)OC[C@@H](C)NP1(=O)OC[C@H]2O[C@@H](n3ccc(N)nc3=O)C(F)(F)[C@@H]2O1 (single isomer, unassigned) [105 (diastereomer 2)] | – | – | 10 to 100 | 1 to 10 | 10 to 100 | – | – | – | – | IC50 ([3]; 72 hr exposure): 10 to 100 µM; IC50 ([4]; 72 hr exposure): < 1 µM; IC50 ([7]; 72 hr exposure): 1 to 10 µM; IC50 ([8]; 72 hr exposure): 1 to 10 µM; IC50 ([9]; 72 hr exposure): 1 to 10 µM
9 | CC(C)C(=O)OC[C@@H](C)NP1(=O)OC[C@H]2O[C@@H](n3ccc(N)nc3=O)C(F)(F)[C@@H]2O1 (single isomer, unassigned) [105 (diastereomer 1)] | – | 10 to 100 | 1 to 10 | 10 to 100 | < 1 | < 1 | < 1 | < 1 | < 1 | –
10 | CCCC(CCC)C(=O)Nc1ccn([C@@H]2O[C@@H]3COP(=O)(N[C@H](C)C(=O)OC(C)C)O[C@H]3C2(F)F)c(=O)n1 (single isomer, unassigned) [116 (diastereomer 1)] | – | 10 to 100 | – | – | – | 10 to 100 | 10 to 100 | 10 to 100 | 10 to 100 | IC50 [2, 15]: 10 to 100 µM; IC50 [5, 16]: 10 to 100 µM; IC50 [6, 17]: 10 to 100 µM
11 | CCOC(=O)[C@@H](C)CCO[P@@]1(=O)OC[C@H]2O[C@@H](n3ccc(N)nc3=O)C(F)(F)[C@@H]2O1 (single isomer, unassigned) [Compound 122 Diastereoisomer 1] | < 0.3 | – | – | – | – | – | – | – | – | –
12 | CCCC(CCC)C(=O)Nc1ccn([C@@H]2O[C@@H]3COP(=O)(N[C@H](C)C(=O)OC(C)C)O[C@H]3C2(F)F)c(=O)n1 (single isomer, unassigned) [116 (diastereomer 2)] | – | – | 10 to 100 | 10 to 100 | 10 to 100 | – | – | – | – | IC50 ([3]; 72 hr exposure): 10 to 100 µM; IC50 ([4]; 72 hr exposure): 10 to 100 µM; IC50 ([7]; 72 hr exposure): 10 to 100 µM; IC50 ([8]; 72 hr exposure): 10 to 100 µM; IC50 ([9]; 72 hr exposure): 10 to 100 µM
13 | Nc1ccn([C@@H]2O[C@@H]3COP(=O)(O)O[C@H]3C2(F)F)c(=O)n1 [Compound 107, 1-[(4aR,6R,7aR)-7,7-difluoro-2-hydroxy-2-oxo-4,4a,6,7a-tetrahydrofuro[3,2-d][1,3,2]dioxaphosphinin-6-yl]-4-amino-pyrimidin-2-one] | – | 10 to 100 | – | – | – | < 1 | < 1 | < 1 | < 1 | IC50 [2, 15]: 1 to 10 µM; IC50 [5, 16]: 10 to 100 µM; IC50 [6, 17]: 1 to 10 µM
14 | CC(C)(C)SSCCOP(=O)(NCc1ccccc1)OC[C@H]1O[C@@H](n2ccc(N)nc2=O)C(F)(F)[C@@H]1O (single isomer, unassigned) [111 (diastereomer 2)] | – | – | 10 to 100 | 10 to 100 | < 1 | – | – | – | – | IC50 ([3]; 72 hr exposure): 10 to 100 µM; IC50 ([4]; 72 hr exposure): < 1 µM; IC50 ([7]; 72 hr exposure): < 1 µM; IC50 ([8]; 72 hr exposure): < 1 µM; IC50 ([9]; 72 hr exposure): 1 to 10 µM
15 | CCOC(=O)[C@H](CC(C)C)NP(=O)(O)OC[C@H]1O[C@@H](n2ccc(N)nc2=O)C(F)(F)[C@@H]1O [Compound 115, [(2R,3R,5R)-5-(4-amino-2-oxo-pyrimidin-1-yl)-4,4-difluoro-3-hydroxy-tetrahydrofuran-2-yl]methoxy-N-[(1S)-1-ethoxycarbonyl-3-methyl-butyl]phosphonamidic acid] | – | 10 to 100 | – | – | – | < 1 | < 1 | < 1 | 1 to 10 | IC50 [2, 15]: 1 to 10 µM; IC50 [5, 16]: 10 to 100 µM; IC50 [6, 17]: < 1 µM
16 | CC(C)OC(=O)[C@@H](C)NP1(=O)OC[C@H]2O[C@@H](n3ccc(N)nc3=O)C(F)(F)[C@@H]2O1 (single isomer, unassigned) [101 (diastereomer 2)] | – | – | 10 to 100 | 10 to 100 | 10 to 100 | 1 to 10 | 1 to 10 | 1 to 10 | 10 to 100 | IC50 ([3]; 72 hr exposure): 10 to 100 µM
17 | CC(C)(C)C(=O)SCCOP1(=O)OC[C@H]2O[C@@H](n3ccc(N)nc3=O)C(F)(F)[C@@H]2O1 (single isomer, unassigned) [104 (diastereomer 1)] | – | 1 to 10 | – | 10 to 100 | – | < 1 | < 1 | < 1 | < 1 | IC50 [2, 15]: 1 to 10 µM; IC50 [6, 17]: 1 to 10 µM
